Results published in the NIST ThermoML archive (doi:10.1016/j.jct.2014.07.026).

Assay: mn = molality of the nth substance listed, in mol/kg
Conditions: 100 kPa, Liquid; for mass density: Vibrating tube method; for speed of sound: Frequency=2 MHz, Linear variable-path acoustic interferometer

CCCCn1cc[n+](C)c1.CC[C@H](C)[C@H](N)C(=O)[O-] [1-butyl-3-methyl-1H-imidazolium L-isoleucinate] + O
Conditions | mass density [kg/m3] | speed of sound [m/s]
293.15 K, m1 = 0.02906 | 999.041 | –
293.15 K, m1 = 0.04398 | 999.456 | –
293.15 K, m1 = 0.05752 | 999.834 | –
293.15 K, m1 = 0.0722 | 1000.24 | –
293.15 K, m1 = 0.07899 | 1000.43 | –
293.15 K, m1 = 0.1182 | 1001.49 | –
293.15 K, m1 = 0.1456 | 1002.23 | –
293.15 K, m1 = 0.1662 | 1002.78 | –
293.15 K, m1 = 0.1765 | 1003.05 | –
293.15 K, m1 = 0.2502 | 1004.97 | –
293.15 K, m1 = 0.2937 | 1006.09 | –
293.15 K, m1 = 0.3356 | 1007.15 | –
293.15 K, m1 = 0.3802 | 1008.26 | –
298.15 K, m1 = 0.02906 | 997.851 | –
298.15 K, m1 = 0.04398 | 998.255 | –
298.15 K, m1 = 0.0472 | – | 1507.8
298.15 K, m1 = 0.05752 | 998.616 | –
298.15 K, m1 = 0.0722 | 999.019 | –
298.15 K, m1 = 0.07899 | 999.193 | –
298.15 K, m1 = 0.1029 | – | 1519.2
298.15 K, m1 = 0.1182 | 1000.22 | –
298.15 K, m1 = 0.1456 | 1000.93 | –
298.15 K, m1 = 0.1481 | – | 1528.4
298.15 K, m1 = 0.1662 | 1001.47 | –
298.15 K, m1 = 0.1765 | 1001.73 | –
298.15 K, m1 = 0.1974 | – | 1538.3
298.15 K, m1 = 0.2422 | – | 1547.2
298.15 K, m1 = 0.2502 | 1003.6 | –
298.15 K, m1 = 0.2927 | – | 1557.1
298.15 K, m1 = 0.2937 | 1004.66 | –
298.15 K, m1 = 0.3356 | 1005.72 | –
298.15 K, m1 = 0.3455 | – | 1567.6
298.15 K, m1 = 0.3802 | 1006.75 | –
298.15 K, m1 = 0.3987 | – | 1578.2
298.15 K, m1 = 0.4518 | – | 1588.5
298.15 K, m1 = 0.5064 | – | 1599.2
303.15 K, m1 = 0.02906 | 996.433 | –
303.15 K, m1 = 0.04398 | 996.821 | –
303.15 K, m1 = 0.05752 | 997.168 | –
303.15 K, m1 = 0.0722 | 997.554 | –
303.15 K, m1 = 0.07899 | 997.73 | –
303.15 K, m1 = 0.1182 | 998.731 | –
303.15 K, m1 = 0.1456 | 999.436 | –
303.15 K, m1 = 0.1662 | 999.965 | –
303.15 K, m1 = 0.1765 | 1000.2 | –
303.15 K, m1 = 0.2502 | 1002 | –
303.15 K, m1 = 0.2937 | 1003.05 | –
303.15 K, m1 = 0.3356 | 1004.06 | –
303.15 K, m1 = 0.3802 | 1005.08 | –
308.15 K, m1 = 0.03034 | 994.828 | –
308.15 K, m1 = 0.0467 | 995.242 | –
308.15 K, m1 = 0.05983 | 995.575 | –
308.15 K, m1 = 0.07535 | 995.962 | –
308.15 K, m1 = 0.09204 | 996.388 | –
308.15 K, m1 = 0.121 | 997.102 | –
308.15 K, m1 = 0.1452 | 997.702 | –
308.15 K, m1 = 0.1832 | 998.629 | –
308.15 K, m1 = 0.2191 | 999.468 | –
308.15 K, m1 = 0.2631 | 1000.51 | –
308.15 K, m1 = 0.2977 | 1001.31 | –
308.15 K, m1 = 0.3367 | 1002.21 | –
308.15 K, m1 = 0.3802 | 1003.17 | –
313.15 K, m1 = 0.03034 | 992.995 | –
313.15 K, m1 = 0.0467 | 993.401 | –
313.15 K, m1 = 0.05983 | 993.731 | –
313.15 K, m1 = 0.07535 | 994.106 | –
313.15 K, m1 = 0.09204 | 994.515 | –
313.15 K, m1 = 0.121 | 995.217 | –
313.15 K, m1 = 0.1452 | 995.792 | –
313.15 K, m1 = 0.1832 | 996.685 | –
313.15 K, m1 = 0.2191 | 997.538 | –
313.15 K, m1 = 0.2631 | 998.53 | –
313.15 K, m1 = 0.2977 | 999.299 | –
313.15 K, m1 = 0.3367 | 1000.18 | –
313.15 K, m1 = 0.3802 | 1001.15 | –
